Test results as given in article PMC8071314, “Computational Design and Development of Benzodioxane-Benzamides as Potent Inhibitors of FtsZ by Exploring the Hydrophobic Subpocket” (Antibiotics, 2021).
Converted amounts (≈) assume the structure as drawn.

What was measured:
[1] = system: MRC-5 cells; assay: MTT cytotoxicity assay on MRC-5 cells; assay type: cell-based, human; conditions: concentration reducing viability of MRC-5 cells by 90%, 24 h incubation
Procedure: (§1) We first determined the minimal inhibitory concentration (MIC), i.e., the lowest compound dose (µM) arresting bacterial growth, and the minimal bactericidal concentration (MBC), i.e., the minimal dose (µM) of the compound required for an irreversible block, even after drug removal. Secondly, the derivatives having the most promising activities vs. MRSA were also tested on human MRC-5 cells, calculating their percentages of cytotoxicity by using the MTT assay. Cells were first incubated with each compound for 24 h, then the derivative was removed, and the cells were overlaid with MTT for an additional 3 h. After that time, DMSO replaced the MTT solution, and after 10 min the absorbance was measured at 570 nm. The percentage of cytotoxicity was defined by the formula [100 − (sample OD/untreated cells OD) × 100]. Table 2 reports TD90, defined as the compound concentration (µM) that reduced viability of MRC-5 cells by 90%. Moreover, we reported the therapeutic index (TI), as TD90 and MBC ratio.
Compounds showing an antibacterial activity at a concentration lower than 10 μg/mL were serially diluted in DMEM and tested for cytotoxicity on MRC-5 cells by the MTT assay (Sigma, St Louis, MO, USA). Protocol was the same previously reported.

[2] = system: MDRSA 11.7; assay: MIC on multidrug resistant clinical S. aureus strain MDRSA 11.7 (EUCAST/CLSI); assay type: cell-based; conditions: Staphylococcus aureus
Procedure: (§2) We tested 1–8 for their antimicrobial activity on different S. aureus strains (Table 2).
(§3) The antibacterial activities on MDRSA 11.7 and MDRSA 12.1 were performed following the European Committee on Antimicrobial Susceptibility Testing (EUCAST) recommendations and Clinical and Laboratory Standards Institute (CLSI) guidelines, as detailed before. Tetracycline was used as a positive control on every assay plate.

[3] = system: MDRSA 12.1; assay: MIC on multidrug resistant clinical S. aureus strain MDRSA 12.1 (EUCAST/CLSI); assay type: cell-based, Staphylococcus aureus; conditions: for MIC: Staphylococcus aureus, MDRSA 12.1
Procedure: as §2, §3

[4] = system: MSSA ATCC29213; set-up: method as in PMID 25462242, PMID 27191617, PMID 31750973, PMID 28586174, PMID 32260339; conditions: Figure 1; cited from earlier work
[5] = system: MSSA ATCC 29213 and MRSA ATCC 43300; assay: MIC and MBC on methicillin-sensitive and methicillin-resistant S. aureus; assay type: cell-based, Staphylococcus aureus; conditions: for MIC / MBC: Staphylococcus aureus, MSSA ATCC 29213 and MRSA ATCC 43300; for MIC: lowest dose arresting bacterial growth; for MBC: minimal dose for irreversible block; for fold more potent than inferior (methylenoxy) homolog: MRSA and MSSA, 1 vs VI, 2 vs VII, 3 vs V, 5 vs 4, 8 vs 7
Procedure: as §1
The antibacterial activity was tested on both a methicillin-sensitive and a methicillin-resistant S. aureus strain, dissolving all the compounds in dimethyl sulfoxide (DMSO) and using fresh cell cultures at 10^5 cells/mL, in a final volume of 2 mL. The detailed protocol is identical to what was previously reported. Every assay was performed in quadruplicate, and for each series of experiments, both positive (no compounds) and negative (no bacteria) controls were included.

[6] = system: B. subtilis strain WM5126; assay: Spot viability assay on LB plates; assay type: cell-based; conditions: Bacillus subtilis, spotted on LB plates with 0, 0.03, 0.06, 0.1 or 1 µg/mL compound
Procedure: The promising properties of these new compounds prompted us to test them on B. subtilis, a model Gram-positive species used previously in evaluating other benzamides, such as 8j, the benzothiazole derivative of PC190723 [28]. We chose derivatives 1, 5, and 8, which had the lowest MICs on S. aureus and because they were representative of different substituents on the benzodioxane scaffold. B. subtilis strain WM5126 was grown until early log phase, and then 1 × and 10 × dilutions of the culture were spotted onto LB plates containing 0, 0.03, 0.06, 0.1, or 1 µg/mL final concentration of the compounds.
The two B. subtilis strains used were WM3612 (JH642 amyE::Pxyl-gfp-gp56), described in Bhambani et al., and WM5126 (JH642 amyE::Pxyl-gfp-zapA), which is the same as strain FG347 [29]. For spot viability assays on plates, compounds were diluted from DMSO stocks into molten LB agar as described above and mixed well before solidifying. WM3612 cultures were grown to early exponential phase in LB broth at 37 °C, then spotted directly or after 1:10 dilution into LB onto LB plates containing various concentrations of compounds. After allowing spots to air dry, plates were then incubated overnight at 34 °C and photographed.

[7] = system: B. subtilis FtsZ rings (strain WM5126, GFP-ZapA); assay: Fluorescence microscopy of GFP-ZapA (Z ring) localization; assay type: cell-based, Bacillus subtilis; conditions: 1 h exposure
Procedure: (yellow arrows in Figure 5 highlight normal sharp bands at the future division sits). On the contrary, in cells treated with compounds 7 and 8, we observed GFP-ZapA forming many (0.4 µg/mL 7) or nearly all (0.8 µg/mL 7 or 0.4 µg/mL 8) foci or focal clusters (white arrows in Figure 5), and abnormal cell elongation is clearly evident. The perturbation of Z rings and cell elongation is similar to the previously described effects of 8j.
For fluorescence microscopy, overnight cultures of WM5126 were grown at […] (after 1:200 dilution of overnight and addition of 0.1% xylose to induce expression of GFP-ZapA) for ~2 h until reaching an OD600 of ~0.2, then treated with no drug or with compounds 7 or 8 diluted in water from stock solutions of 40 mg/mL (8) or 27 mg/mL (7) in DMSO. Those dilutions (40 µg/mL in water) were then added at 1:100 or 1:50 to the cultures and grown for 1 h shaking at 33 °C prior to spotting on a thin layer of 1% agarose in phosphate buffered saline. Cells were imaged with differential interference contrast (DIC) and fluorescence using an Olympus BX100 fitted with a 100 × Plan Apochromat objective (N.A. 1.4) and a GFP filter set (Chroma). Images were acquired with CellSens software (Olympus) and DIC, and fluorescent images of the same field were overlaid using ImageJ [31].
Figure 5 Effect of compounds 7 and 8 on B. subtilis Z rings. B. subtilis strain WM5126 was induced with 0.1% xylose to express GFP-ZapA, then exposed to compounds 7 or 8 for 1 h during exponential growth at 37 °C prior to imaging by DIC and fluorescence. Yellow arrows indicate normal sharp rings at the future division site, while white arrows indicate abnormal foci or clusters. Scale bar, 5 µm.

Compound	MIC [2] [µM]	MIC [3] [µM]	MIC [5] [µM]	TD90 [1] [µM]	MIC [4] [µM]	MBC [5] [µM]	MIC [6] [µg/mL]	fold more potent than inferior (methylenoxy) homolog [5]	GFP-ZapA forming foci or focal clusters ([7]; 0.4 µg/mL)	GFP-ZapA forming foci or focal clusters ([7]; 0.8 µg/mL)	melting point [°C]	times more active than inferior homolog ([3]; MDRSA, 3 vs V)
Cc1nc(-c2ccc3c(c2)OC(COc2ccc(F)c(C(N)=O)c2F)CO3)no1 (stereo not drawn) [VI, reference compound]	9.9 (≈ 3.99 µg/mL)	5 (≈ 2.02 µg/mL)	6.2 (≈ 2.5 µg/mL)	>1983	6.2 (≈ 2.5 µg/mL)	6.2 (≈ 2.5 µg/mL)						
CSc1nc(-c2ccc3c(c2)OC(COc2ccc(F)c(C(N)=O)c2F)CO3)no1 (stereo not drawn) [V, reference compound]	< 2.3	< 2.3	1.4 (≈ 0.61 µg/mL)	1700	1.4 (≈ 0.61 µg/mL)	1.4 (≈ 0.61 µg/mL)						
NC(=O)c1c(F)ccc(OCCC2COc3cc4ccccc4cc3O2)c1F (stereo not drawn) [Compound 5, 3-[2-(2,3-dihydronaphtho[2,3-b][1,4]dioxin-2-yl)ethoxy]-2,6-difluorobenzamide]	1.3 (≈ 0.501 µg/mL)	0.6 (≈ 0.231 µg/mL)	0.6 (≈ 0.231 µg/mL)	233		0.6 (≈ 0.231 µg/mL)	< 0.1	12 fold				
NC(=O)c1c(F)ccc(OCc2nc3cc(Cl)cnc3s2)c1F [PC190723]					2.8 (≈ 0.996 µg/mL)							
NC(=O)c1c(F)ccc(OCc2nc3cc(Cl)ccc3s2)c1F [Compound 8j]					0.70 (≈ 0.248 µg/mL)							
NC(=O)c1c(F)ccc(OCC2COc3cc4c(cc3O2)CCCC4)c1F (stereo not drawn) [Compound 7]	10.7 (≈ 4.02 µg/mL)	5.3 (≈ 1.99 µg/mL)	13.3 (≈ 4.99 µg/mL)	200		13.3 (≈ 4.99 µg/mL)			many	nearly all		
NC(=O)c1c(F)ccc(OCCC2COc3cc4c(cc3O2)CCCC4)c1F (stereo not drawn) [Compound 8, 3-[2-(2,3,6,7,8,9-hexahydronaphtho[2,3-b][1,4]dioxin-2-yl)ethoxy]-2,6-difluorobenzamide]	0.3 (≈ 0.117 µg/mL)	0.3 (≈ 0.117 µg/mL)	0.25 (≈ 0.0973 µg/mL)	2054		0.25 (≈ 0.0973 µg/mL)	< 0.1	50 fold	nearly all		166.5	
NC(=O)c1c(F)ccc(OCCCC2COc3ccccc3O2)c1F (stereo not drawn) [III]					28.6 (≈ 9.99 µg/mL)							
COC(=O)c1ccc2c(c1)OC(COc1ccc(F)c(C(N)=O)c1F)CO2 (stereo not drawn) [IV]					1.6 (≈ 0.607 µg/mL)							
Cc1nc(-c2ccc3c(c2)OC(CCOc2ccc(F)c(C(N)=O)c2F)CO3)no1 (stereo not drawn) [Compound 1, 3-[2-(7-(5-methyl-1,2,4-oxadiazol-3-yl)-1,4-benzodioxan-2-yl)ethyloxy]-2,6-difluorobenzamide]	1.2 (≈ 0.501 µg/mL)	1.2 (≈ 0.501 µg/mL)	1.2 (≈ 0.501 µg/mL)	>1910		1.2 (≈ 0.501 µg/mL)	0.1 to 1 (≈ 0.24 to 2.4 µM)	5 fold				

Continued, in another order:

MIC [2] [µM]	MIC [3] [µM]	MIC [5] [µM]	Compound	TD90 [1] [µM]	MIC [4] [µM]	MBC [5] [µM]	MIC [6] [µg/mL]	fold more potent than inferior (methylenoxy) homolog [5]	GFP-ZapA forming foci or focal clusters ([7]; 0.4 µg/mL)	GFP-ZapA forming foci or focal clusters ([7]; 0.8 µg/mL)	melting point [°C]	times more active than inferior homolog ([3]; MDRSA, 3 vs V)
9.6 (≈ 4.01 µg/mL)	4.8 (≈ 2 µg/mL)	6 (≈ 2.5 µg/mL)	CCc1nc(-c2ccc3c(c2)OC(COc2ccc(F)c(C(N)=O)c2F)CO3)no1 (stereo not drawn) [VII, reference compound]	>1916	6.0 (≈ 2.5 µg/mL)	6 (≈ 2.5 µg/mL)						
49.8 (≈ 16 µg/mL)	24.9 (≈ 8 µg/mL)	15.6 (≈ 5.01 µg/mL)	NC(=O)c1c(F)ccc(OCC2COc3ccccc3O2)c1F (stereo not drawn) [I, reference compound]	49.8	15.6 (≈ 5.01 µg/mL)	249 (≈ 80 µg/mL)						
11.4 (≈ 4.23 µg/mL)	11.4 (≈ 4.23 µg/mL)	7.1 (≈ 2.64 µg/mL)	NC(=O)c1c(F)ccc(OCC2COc3cc4ccccc4cc3O2)c1F (stereo not drawn) [Compound 4, 3-[(2,3-dihydronaphtho[2,3-b][1,4]dioxin-2-yl)methoxy]-2,6-difluorobenzamide]	>2276		7.1 (≈ 2.64 µg/mL)						
0.6 (≈ 0.259 µg/mL)	0.6 (≈ 0.259 µg/mL)	0.6 (≈ 0.259 µg/mL)	CCc1nc(-c2ccc3c(c2)OC(CCOc2ccc(F)c(C(N)=O)c2F)CO3)no1 (stereo not drawn) [Compound 2]	1854		0.6 (≈ 0.259 µg/mL)		10 fold				
11.9 (≈ 3.99 µg/mL)	11.9 (≈ 3.99 µg/mL)	14.9 (≈ 5 µg/mL)	NC(=O)c1c(F)ccc(OCCC2COc3ccccc3O2)c1F (stereo not drawn) [II, reference compound]	226	14.9 (≈ 5 µg/mL)	14.9 (≈ 5 µg/mL)						
1.1 (≈ 0.494 µg/mL)	1.1 (≈ 0.494 µg/mL)	0.5 (≈ 0.225 µg/mL)	CSc1nc(-c2ccc3c(c2)OC(CCOc2ccc(F)c(C(N)=O)c2F)CO3)no1 (stereo not drawn) [Compound 3, 3-[2-(7-(5-methylthio-1,2,4-oxadiazol-3-yl)-1,4-benzodioxan-2-yl)ethyloxy]-2,6-difluorobenzamide]	1668		0.5 (≈ 0.225 µg/mL)		three				two
11.2 (≈ 4 µg/mL)	11.2 (≈ 4 µg/mL)	14 (≈ 5 µg/mL)	NC(=O)c1c(F)ccc(OCCCOc2ccc3ccccc3c2)c1F [Compound 6]	>2238		14 (≈ 5 µg/mL)						
